Consider 9 compounds from US4419447A, “Fermentation process for producing demycinosyltylosin” (Eli Lilly and Company, priority 1981, dated 1983).

Data set [1] has as its system Streptomyces fradiae E2724.1. As to the kind of experiment: Antibiotic sensitivity of S. fradiae E2724.1 (sensitivity discs on seeded agar plates). Type of data set: cell-based. The source says: (§1) ^a Determined by using sensitivity discs padded onto seededagar
Data set [2] deals with Streptomyces fradiae NRRL 12170. Description: Antibiotic sensitivity of S. fradiae NRRL 12170 (sensitivity discs on seeded agar plates). Type of data set: cell-based.
Excerpt: as §1

Data set [3] has as its system Streptococcus pyogenes C203. As to the kind of experiment: Experimental infection in mice. Type of data set: in vivo. Conditions: two doses.
The subject of data set [4] is Streptococcus pneumoniae Park I. As to the kind of experiment: Experimental infection in mice. Type of data set: in vivo.
Data set [5] has as its system Mycoplasma gallisepticum. Description: Treatment of induced Mycoplasma gallisepticum infection in chicks with DMT tartrate. Type of data set: in vivo. Conditions: infected control 231. The method, then:
(§2) Activity against Mycoplasma species is an especially useful aspect of the DMT compounds. Tables 10 and 11 summarize experiments using DMT and DMT tartrate for the treatment of induced Mycoplasma gallisepticum infections in chickens. The compounds were administered in the drinking water (at 1 and 2 grams per gallon for 1 to 3 days) or by injection at 15 or 30 mg/kg of body weight.

Another data set is described as follows: physchem. Conditions: 66% aqueous dimethylformamide. Type of data set: physicochemical.
The format of data set [6] is physicochemical. The source says:
DMT base is soluble in water and in most polar organic solvents, such as acetone, methanol, ethanol, chloroform, dimethylformamide and dimethyl sulfoxide. DMT acid addition salts are more soluble in water than is DMT base.

The subject of data set [7] is gram-positive microorganisms and Mycoplasma species. Description: Inhibition of growth of pathogenic bacteria (general statement). Type of data set: cell-based. The text has this:
(§3) Table 8 summarizes the minimal inhibitory concentrations (MIC), as measured by standard agar-dilution assays, at which DMT (free base) inhibits certain bacteria.

Data set [8] concerns Mycoplasma gallisepticum. Description: In vitro activity, standard agar-dilution assay. Type of data set: cell-based. The note with it: Mycoplasmoides gallisepticum.
Excerpt: as §3

For the next data set, the system named is Mycoplasma hyopneumoniae. Description: In vitro activity, standard agar-dilution assay. Type of data set: cell-based. Conditions: Mesomycoplasma hyopneumoniae.
Excerpt: as §3

Another data set concerns Mycoplasma hyorhinis. As to the kind of experiment: In vitro activity, standard agar-dilution assay. Type of data set: cell-based.
Excerpt: as §3

The test system of a further data set is Pasteurella hemolytica. As to the kind of experiment: In vitro activity, standard agar-dilution assay. Type of data set: cell-based.
Excerpt: as §3

The subject of the next data set is Pasteurella multocida. As to the kind of experiment: In vitro activity, standard agar-dilution assay. Type of data set: cell-based.
Excerpt: as §3

Data set [9] relates to Staphylococcus aureus 209P. As to the kind of experiment: In vitro activity, standard agar-dilution assay. Type of data set: cell-based.
Excerpt: as §3

For data set [10], the system named is Staphylococcus aureus 3055. Description: In vitro activity, standard agar-dilution assay. Type of data set: cell-based.
Excerpt: as §3

For data set [11], the system named is Streptococcus pneumoniae Park I. As to the kind of experiment: In vitro activity, standard agar-dilution assay. Type of data set: cell-based.
Excerpt: as §3

Data set [12] relates to Streptococcus pyogenes C203. Description: In vitro activity, standard agar-dilution assay. Type of data set: cell-based.
Excerpt: as §3

The test system of data set [13] is Streptococcus sp. (Group D) 282. Description: In vitro activity, standard agar-dilution assay. Type of data set: cell-based.
Excerpt: as §3

The test system of data set [14] is Staphylococcus aureus 3055. Description: Experimental infection in mice. Type of data set: in vivo. The note with it: two doses.
Data set [15] has as its system Mycoplasma gallisepticum. Description: Treatment of induced Mycoplasma gallisepticum infection in chicks with DMT base. Type of data set: in vivo. The note with it: infected control 304. The method, then:
as §2

Data set [16] can be described thus: Acute toxicity of DMT in mice. The note with it: mouse, in vivo. The text has this: In these studies, 4- to 5-week-old Harlan ICR mice were used. […]
Where [17] appears, read: 1.0 g/gal, 1-3 days, drinking water.
[18] abbreviates: 2.0 g/gal, 1-3 days, drinking water.

Values after ≈ are worked out from the molar mass of the structure shown. Structures can show the parent of a compound that is named as a salt. Where two headings read alike, the source gives them in different places.

Regarding `O=C(Cc1cccs1)N[C@@H]1C(=O)N2C(C(=O)[O-])=C(C[n+]3ccccc3)CS[C@H]12` [Cephaloridine], the “Antibiotic Sensitivity” value in data set [1] (disc conc. 30 μg) and in data set [2] (disc conc. 30 μg) was “+” throughout.
Take `O=C(N[C@H](CO)[C@H](O)c1ccc([N+](=O)[O-])cc1)C(Cl)Cl` [Chloramphenicol]: the “Antibiotic Sensitivity” value in [1] (disc conc. 30 μg) and in data set [2] (disc conc. 30 μg) was “+” each time.
With `CCC1OC(=O)CC(O)C(C)C(OC2OC(C)C(OC3CC(C)(O)C(O)C(C)O3)C(N(C)C)C2O)C(CC=O)CC(C)C(=O)C=CC(C)=CC1CO` (stereo not shown) [DMT Tartrate], the ED50 was 172 mg/kg × 2 in [3] (oral, challenge 11.3 × LD50); 2.3 mg/kg × 2 in [3] (subcutaneous, challenge 13 × LD50); 100 mg/kg in data set [4] (po); at most 9.9 mg/kg in data set [4] (sc). Also, the “Avg. Wt.” value in the data set on Mycoplasma gallisepticum [5] (30 mg/kg, injection) turned out to be 330 g; in the data set on Mycoplasma gallisepticum [5] (setting [17]), 354 g; in the data set on Mycoplasma gallisepticum [5] (setting [18]), 458 g.
A word on the pKa: it is the pH at which an ionisable group is half protonated. A lower pKa goes with a stronger acid or weaker base. What is called MIC is the lowest concentration found to suppress growth. A low value points to greater potency. One may read the LD50 as the dose at which mortality reaches 50%. A higher LD50 goes with lower toxicity. For the compound `CCC1OC(=O)CC(O)C(C)C(OC2OC(C)C(OC3CC(C)(O)C(O)C(C)O3)C(N(C)C)C2O)C(CC=O)CC(C)C(=O)C=CC(C)=CC1CO` (stereo not shown) [DMT, 23-demycinosyltylosin], in “physchem”, the pKa was around 7.25. The “solubility in most polar organic solvents” value in data set [6] is on record as “soluble”. In addition, in data set [6], the solubility in water result was “soluble”. In addition, in data set [7], the “inhibition of growth of pathogenic organisms” value is “especially active against gram-positive microorganisms and Mycoplasma species”. For the same compound, the minimum inhibitory concentration (MIC) with Mycoplasma gallisepticum [8] was 0.097 µg/mL (≈ 0.131 µM); with Mycoplasma hyopneumoniae, 0.195 µg/mL (≈ 0.263 µM); with Mycoplasma hyorhinis, 0.78 µg/mL (≈ 1.05 µM); with Pasteurella hemolytica, 12.5 µg/mL (≈ 16.8 µM); against Pasteurella multocida it was 3.12 µg/mL (≈ 4.21 µM); in [9], 0.25 µg/mL (≈ 0.337 µM). Moreover, the MIC was determined as 1 µg/mL (≈ 1.35 µM) in data set [10], 0.13 µg/mL (≈ 0.175 µM) in [11], 0.25 µg/mL (≈ 0.337 µM) in data set [12] and 0.5 µg/mL (≈ 0.674 µM) in data set [13]. The ED50 turned out to be 218 mg/kg in [3] (Streptococcus pyogenes, C203, po, oral, challenge 11.3 × LD50, read-out: ED50); 2.2 mg/kg in data set [3] (Streptococcus pyogenes, C203, sc, subcutaneous, challenge 13 × LD50, read-out: ED50); 66 mg/kg in data set [4] (po, two doses, challenge 2.7 × LD50); 15.7 mg/kg in data set [4] (sc, subcutaneous, two doses, challenge 3 × LD50); 2.7 mg/kg in data set [14] (Staphylococcus aureus, 3055, sc, subcutaneous, challenge 21 × LD50); 64 mg/kg in data set [14] (Staphylococcus aureus, 3055, oral, challenge 26 × LD50). Besides, the “Avg. Wt.” value was 453 g in the data set on Mycoplasma gallisepticum [15] (15 mg/kg, injection); 392 g with Mycoplasma gallisepticum [15] (setting [17]); 397 g with Mycoplasma gallisepticum [15] (setting [18]). Besides, the LD50 is 325 mg/kg in data set [16] (ip, females); 721 mg/kg in data set [16] (ip, males); 186 mg/kg in data set [16] (iv, females); 100 mg/kg in data set [16] (iv, males); above 5000 mg/kg in [16] (po, females); 5450 mg/kg in data set [16] (sc, females).
Regarding `CCC[C@@H]1C[C@@H](C(=O)N[C@@H]([C@H]2O[C@H](SC)[C@H](O)[C@@H](O)[C@H]2O)[C@@H](C)O)N(C)C1` [Lincomycin], the “Antibiotic Sensitivity” value in [1] (disc conc. 2 μg) and in [2] (disc conc. 2 μg) was “-” throughout.
For `[H]/N=C(/N)N[C@H]1[C@H](O)[C@@H](O)[C@H](O[C@@H]2O[C@@H](C)[C@](O)(C=O)[C@H]2O[C@@H]2O[C@@H](CO)[C@H](O)[C@@H](O)[C@@H]2NC)[C@@H](N/C(N)=N\[H])[C@@H]1O` [Streptomycin], the “Antibiotic Sensitivity” value in [1] (disc conc. 10 μg) and in data set [2] (disc conc. 10 μg) was “+” throughout.
As for `CN(C)[C@@H]1C(O)=C(C(N)=O)C(=O)[C@@]2(O)C(O)=C3C(=O)c4c(O)cccc4[C@@](C)(O)[C@H]3C[C@@H]12` [Tetracycline], the “Antibiotic Sensitivity” value in data set [1] (disc conc. 30 μg) and in data set [2] (disc conc. 30 μg) was “+” each time.
Consider `CN[C@H](CC(C)C)C(=O)N[C@H]1C(=O)N[C@@H](CC(N)=O)C(=O)N[C@H]2C(=O)N[C@H]3C(=O)N[C@H](C(=O)N[C@H](C(=O)O)c4cc(O)cc(O)c4-c4cc3ccc4O)[C@H](O)c3ccc(c(Cl)c3)Oc3cc2cc(c3O[C@@H]2O[C@H](CO)[C@@H](O)[C@H](O)[C@H]2O[C@H]2C[C@](C)(N)[C@H](O)[C@H](C)O2)Oc2ccc(cc2Cl)[C@H]1O` [Vancomycin], for which the “Antibiotic Sensitivity” value in [1] (disc conc. 30 μg) and in data set [2] (disc conc. 30 μg) was “+” throughout.
With `CCC1OC(=O)CC(O)C(C)C(OC2OC(C)C(OC3CC(C)(O)C(O)C(C)O3)C(N(C)C)C2O)C(CCO)CC(C)C(=O)C=CC(C)=CC1CO` (stereo not shown) [dihydro-DMT, 20-dihydro-23-demycinosyltylosin], the “inhibition of growth of pathogenic organisms” value in [7] was “especially active against gram-positive microorganisms and Mycoplasma species”.
